Reference: ChEMBL document CHEMBL4417621, “Methods to identify tas2r modulators” (2013)

How the values were obtained:
Type in all cases: functional, cell-based
[1] = biological target: T1, Taste receptor type 2 member 46 (Homo sapiens) (UniProt P59540); assay: Activation of full-length human TAS2R46 expressed in HEK293T/Galpha16-gustducin 44 cells assessed as effect on calcium flux by measuring deltaF/F0 ratio at 100 mM by Fluo-4 dye based FLIPR assay
T1 sequence (whole entry): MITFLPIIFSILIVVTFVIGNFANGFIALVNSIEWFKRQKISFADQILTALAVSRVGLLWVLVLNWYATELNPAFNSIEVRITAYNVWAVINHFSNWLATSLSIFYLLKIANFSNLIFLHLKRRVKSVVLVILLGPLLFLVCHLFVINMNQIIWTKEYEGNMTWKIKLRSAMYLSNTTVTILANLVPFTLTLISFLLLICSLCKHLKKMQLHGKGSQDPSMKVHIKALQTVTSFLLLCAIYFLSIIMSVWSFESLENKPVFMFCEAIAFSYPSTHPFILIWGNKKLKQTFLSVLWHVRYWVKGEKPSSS

[2] = biological target: T2, Taste receptor type 2 member 31 (Homo sapiens) (UniProt P59538); assay: Activation of full-length human TAS2R44 expressed in HEK293T/Galpha16-gustducin 44 cells assessed as effect on calcium flux by measuring deltaF/F0 ratio at 100 mM by Fluo-4 dye based FLIPR assay (reference value: 0.021 +/ - 0.012)
T2 sequence (whole entry): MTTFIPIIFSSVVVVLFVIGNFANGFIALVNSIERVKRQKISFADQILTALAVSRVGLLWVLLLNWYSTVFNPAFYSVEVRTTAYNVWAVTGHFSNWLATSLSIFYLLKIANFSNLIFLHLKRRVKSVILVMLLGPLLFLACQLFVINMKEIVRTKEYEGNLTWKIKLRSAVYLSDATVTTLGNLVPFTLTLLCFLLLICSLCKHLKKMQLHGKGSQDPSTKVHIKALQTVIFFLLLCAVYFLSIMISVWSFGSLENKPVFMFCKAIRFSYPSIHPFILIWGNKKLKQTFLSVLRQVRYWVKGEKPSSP

[3] = biological target: T3, Taste receptor type 2 member 1 (Homo sapiens) (UniProt Q9NYW7); assay: Activation of full-length human TAS2R1 expressed in HEK293T/Galpha16-gustducin 44 cells assessed as effect on calcium flux by measuring deltaF/F0 ratio at 12.5 mM by Fluo-4 dye based FLIPR assay
T3 sequence (whole entry): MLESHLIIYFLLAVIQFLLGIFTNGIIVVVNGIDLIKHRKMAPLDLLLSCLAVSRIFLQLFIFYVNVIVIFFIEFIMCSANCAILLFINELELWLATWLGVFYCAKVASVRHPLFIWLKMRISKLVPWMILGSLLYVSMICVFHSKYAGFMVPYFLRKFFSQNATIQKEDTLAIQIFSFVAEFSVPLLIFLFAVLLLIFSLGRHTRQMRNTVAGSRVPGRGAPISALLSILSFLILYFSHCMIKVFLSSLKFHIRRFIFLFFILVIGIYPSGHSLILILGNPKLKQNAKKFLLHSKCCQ

[4] = biological target: T4, Taste receptor type 2 member 10 (Homo sapiens) (UniProt Q9NYW0); assay: Activation of full-length human TAS2R10 expressed in HEK293T/Galpha16-gustducin 44 cells assessed as effect on calcium flux by measuring deltaF/F0 ratio by Fluo-4 dye based FLIPR assay
T4 sequence (whole entry): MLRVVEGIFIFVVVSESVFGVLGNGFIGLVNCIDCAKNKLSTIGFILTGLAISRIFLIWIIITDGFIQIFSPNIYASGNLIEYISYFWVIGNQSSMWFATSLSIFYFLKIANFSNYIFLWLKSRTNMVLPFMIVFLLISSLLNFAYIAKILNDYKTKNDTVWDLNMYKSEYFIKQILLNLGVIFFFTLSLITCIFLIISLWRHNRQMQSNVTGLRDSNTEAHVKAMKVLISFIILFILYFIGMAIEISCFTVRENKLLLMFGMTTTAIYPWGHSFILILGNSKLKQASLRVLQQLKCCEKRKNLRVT

[5] = biological target: T3, Taste receptor type 2 member 1 (Homo sapiens); assay: Activation of full-length human TAS2R1 expressed in HEK293T/Galpha16-gustducin 44 cells assessed as effect on calcium flux by measuring deltaF/F0 ratio at 100 mM by Fluo-4 dye based FLIPR assay
[6] = biological target: T2, Taste receptor type 2 member 31 (Homo sapiens); assay: Activation of full-length human TAS2R44 expressed in HEK293T/Galpha16-gustducin 44 cells assessed as effect on calcium flux by measuring deltaF/F0 ratio at 50 mM by Fluo-4 dye based FLIPR assay (reference value: […] +/ - 0.016)
[7] = biological target: T3, Taste receptor type 2 member 1 (Homo sapiens); assay: Activation of full-length human TAS2R1 expressed in HEK293T/Galpha16-gustducin 44 cells assessed as effect on calcium flux by measuring deltaF/F0 ratio at 25 mM by Fluo-4 dye based FLIPR assay
[8] = biological target: T2, Taste receptor type 2 member 31 (Homo sapiens); assay: Activation of full-length human TAS2R44 expressed in HEK293T/Galpha16-gustducin 44 cells assessed as effect on calcium flux by measuring deltaF/F0 ratio at 25 mM by Fluo-4 dye based FLIPR assay (reference value: […] +/ - 0.017)
[9] = biological target: T2, Taste receptor type 2 member 31 (Homo sapiens); assay: Activation of full-length human TAS2R44 expressed in HEK293T/Galpha16-gustducin 44 cells assessed as effect on calcium flux by measuring deltaF/F0 ratio at 6.25 mM by Fluo-4 dye based FLIPR assay (reference value: 0.017 +/ - 0.009)
[10] = biological target: T2, Taste receptor type 2 member 31 (Homo sapiens); assay: Activation of full-length human TAS2R44 expressed in HEK293T/Galpha16-gustducin 44 cells assessed as effect on calcium flux by measuring deltaF/F0 ratio at 0.7813 mM by Fluo-4 dye based FLIPR assay (reference value: […] +/ - 0.002)
[11] = biological target: T4, Taste receptor type 2 member 10 (Homo sapiens); assay: Activation of full-length human TAS2R10 expressed in HEK293T/Galpha16-gustducin 44 cells assessed as effect on calcium flux by measuring deltaF/F0 ratio at 100 mM by Fluo-4 dye based FLIPR assay
[12] = biological target: T4, Taste receptor type 2 member 10 (Homo sapiens); assay: Activation of full-length human TAS2R10 expressed in HEK293T/Galpha16-gustducin 44 cells assessed as effect on calcium flux by measuring deltaF/F0 ratio at 3.125 mM by Fluo-4 dye based FLIPR assay
[13] = biological target: T4, Taste receptor type 2 member 10 (Homo sapiens); assay: Activation of full-length human TAS2R10 expressed in HEK293T/Galpha16-gustducin 44 cells assessed as effect on calcium flux by measuring deltaF/F0 ratio at 12.5 mM by Fluo-4 dye based FLIPR assay
[14] = biological target: T3, Taste receptor type 2 member 1 (Homo sapiens); assay: Activation of full-length human TAS2R1 expressed in HEK293T/Galpha16-gustducin 44 cells assessed as effect on calcium flux by measuring deltaF/F0 ratio at 0.7813 mM by Fluo-4 dye based FLIPR assay
[15] = biological target: T1, Taste receptor type 2 member 46 (Homo sapiens); assay: Activation of full-length human TAS2R46 expressed in HEK293T/Galpha16-gustducin 44 cells assessed as effect on calcium flux by measuring deltaF/F0 ratio by Fluo-4 dye based FLIPR assay
[16] = biological target: T4, Taste receptor type 2 member 10 (Homo sapiens); assay: Activation of full-length human TAS2R10 expressed in HEK293T/Galpha16-gustducin 44 cells assessed as effect on calcium flux by measuring deltaF/F0 ratio at 0.7813 mM by Fluo-4 dye based FLIPR assay

Ratio [1]: 0.258
Ratio [2]: 0.26
Ratio [3]: 0.072
Activity [4]: Dose-dependent effect
Ratio [5]: 0.518
Ratio [6]: 0.256
Ratio [7]: 0.104
Ratio [8]: 0.197
Ratio [9]: 0.059
Ratio [10]: 0.025
Ratio [11]: 0.437
Ratio [12]: 0.053
Ratio [13]: 0.059
Ratio [14]: 0.05
Activity [15]: Dose-dependent effect
Ratio [16]: 0.05
SMILES: OC[C@H]1O[C@H](O[C@]2(CCl)O[C@H](CCl)[C@@H](O)[C@@H]2O)[C@H](O)[C@@H](O)[C@H]1Cl [SUCRALOSE]
